Literature values as cited in patent publication EP0655506B1 (priority 1994, dated 1995).
Like-named read-outs stand apart in the source and are kept apart here.

Molecular target: T7 DNA polymerase (Escherichia phage T7, UniProt P00581)
Settings: '(for ddATP)' stands at the end of the sentence, cited from earlier work

Sequence of T7 DNA polymerase (P0AA25 2-109): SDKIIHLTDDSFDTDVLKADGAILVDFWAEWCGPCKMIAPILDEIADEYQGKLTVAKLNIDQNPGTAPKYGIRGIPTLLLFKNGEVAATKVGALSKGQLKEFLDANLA
Sequence of T7 DNA polymerase (P00581 whole entry): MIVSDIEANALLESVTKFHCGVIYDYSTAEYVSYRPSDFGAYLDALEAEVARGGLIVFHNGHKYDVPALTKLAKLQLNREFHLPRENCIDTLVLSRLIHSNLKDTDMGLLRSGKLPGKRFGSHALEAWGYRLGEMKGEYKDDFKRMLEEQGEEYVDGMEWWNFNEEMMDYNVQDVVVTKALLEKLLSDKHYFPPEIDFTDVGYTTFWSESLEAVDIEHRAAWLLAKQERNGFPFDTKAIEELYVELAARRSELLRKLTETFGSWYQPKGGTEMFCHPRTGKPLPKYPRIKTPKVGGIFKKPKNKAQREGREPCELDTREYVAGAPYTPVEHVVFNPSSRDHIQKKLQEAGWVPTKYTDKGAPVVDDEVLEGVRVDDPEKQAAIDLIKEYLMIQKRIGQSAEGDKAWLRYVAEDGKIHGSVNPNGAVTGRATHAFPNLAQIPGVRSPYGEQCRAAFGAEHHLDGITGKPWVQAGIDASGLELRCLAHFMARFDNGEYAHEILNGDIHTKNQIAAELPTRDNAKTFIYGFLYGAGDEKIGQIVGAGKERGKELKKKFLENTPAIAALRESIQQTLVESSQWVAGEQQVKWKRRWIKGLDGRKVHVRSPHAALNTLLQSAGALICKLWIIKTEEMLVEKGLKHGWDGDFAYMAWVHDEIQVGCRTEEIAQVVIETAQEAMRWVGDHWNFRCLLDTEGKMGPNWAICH

Nc1ncnc2c1ncn2[C@H]1CC[C@@H](COP(=O)(O)OP(=O)(O)OP(=O)(O)O)O1 [ddATP]
discrimination (in the presence of manganese): 1 | discrimination (magnesium): 3.7
